Reference: US20240150286A1, “PEROXISOME PROLIFERATOR-ACTIVATED RECEPTOR GAMMA (PPARy) LIGANDS AND METHODS OF USE AS TREATMENTS FOR INSULIN RESISTANCE, OBESITY, FATTY LIVER DISEASE, AND TYPE 2 DIABETES” (The Board of Regents of the University of Oklahoma, priority 2022, published 2024)

Molecular target: T1, PPARγ ligand-binding domain (LBD) (Homo sapiens, UniProt P37231)
T1 construct: purchased Thermo Fisher Scientific
T1 sequence (P37231 238-503 limits assumed): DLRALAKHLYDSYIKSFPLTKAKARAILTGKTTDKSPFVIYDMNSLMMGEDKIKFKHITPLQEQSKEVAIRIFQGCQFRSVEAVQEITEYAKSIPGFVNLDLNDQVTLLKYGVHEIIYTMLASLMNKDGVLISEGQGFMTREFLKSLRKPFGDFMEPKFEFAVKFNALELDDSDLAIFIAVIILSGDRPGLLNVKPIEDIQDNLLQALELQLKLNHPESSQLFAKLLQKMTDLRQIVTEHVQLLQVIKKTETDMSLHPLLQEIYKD
Test: In vitro competition binding assay (PolarScreen PPARγ-Competitor, fluorescence polarization)
Description: The in vitro competition binding assays was performed using PolarScreen™ PPARγ-Competitor Assay Kit according to the manufacturer's instructions. Briefly, compounds at 2-fold titration serial concentrations were incubated with GST-tagged PPARγ ligand-binding domain (LBD, 34 nM) and Fluormone PPAR Green tracer (9 nM) for 4 hours in the dark at room temperature in a black 384-well assay plate (Corning Glass cat. no. 677). The florescence polarization value (mP) was measured at 485 nm (excitation) and at 535 nm (emission) using a microplate reader.

With `Cc1c(C)n(Cc2ccc(-c3ccccc3C(=O)O)cc2)c2ccc(C(=O)NCc3cccc(O)c3)cc12` [WO95E, 4′-((5-((3-hydroxybenzyl)carbamoyl)-2,3-dimethyl-1H-indol-1-yl)methyl)-[1,1′-biphenyl]-2-carboxylic acid] the “IC50 fold lower than that of UHC1” value (WO95E vs UHC1) was “approximately 70 fold” and the IC50 (competition with Fluormone PPAR Green tracer, GST-PPARγ LBD 34 nM, read-out: half-maximum inhibitory concentration (IC50), binding to PPARγ LBD) was ~11 nM.
